Reference: PubChem BioAssay (NCI)
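GI50 is the concentration that inhibits growth by half. At the TGI there is no net growth.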

What was measured:
Assay in all cases: NCI anticancer screen, dose series, 384-well format
UO-31 renal = tested on: UO-31 renal
PC-3 prostate = tested on: PC-3 prostate
MOLT-4 leukemia = tested on: MOLT-4 leukemia
SNB-19 CNS = tested on: SNB-19 CNS
KM12 colon = tested on: KM12 colon
A498 renal = tested on: A498 renal
NCI-H322M lung = tested on: NCI-H322M lung
NCI/ADR-RES ovarian = tested on: NCI/ADR-RES ovarian
SF-268 CNS = tested on: SF-268 CNS
HCT-15 colon = tested on: HCT-15 colon
RXF 393 renal = tested on: RXF 393 renal
NCI-H460 NSCLC = tested on: NCI-H460 NSCLC
MALME-3M melanoma = tested on: MALME-3M melanoma
HS 578T breast = tested on: HS 578T breast
SK-OV-3 ovarian = tested on: SK-OV-3 ovarian
DU-145 prostate = tested on: DU-145 prostate
SN12C renal = tested on: SN12C renal
LOX IMVI melanoma = tested on: LOX IMVI melanoma
MDA-MB-468 breast = tested on: MDA-MB-468 breast
MDA-MB-231 breast = tested on: MDA-MB-231 breast
NCI-H23 lung = tested on: NCI-H23 lung
EKVX NSCLC = tested on: EKVX NSCLC
OVCAR-8 ovarian = tested on: OVCAR-8 ovarian
U251 glioblastoma = tested on: U251 glioblastoma
SF-539 CNS = tested on: SF-539 CNS
SK-MEL-28 melanoma = tested on: SK-MEL-28 melanoma
RPMI-8226 leukemia = tested on: RPMI-8226 leukemia
SNB-75 CNS = tested on: SNB-75 CNS
UACC-257 melanoma = tested on: UACC-257 melanoma
OVCAR-4 ovarian = tested on: OVCAR-4 ovarian
OVCAR-3 ovarian = tested on: OVCAR-3 ovarian
SK-MEL-5 melanoma = tested on: SK-MEL-5 melanoma
HOP-92 NSCLC = tested on: HOP-92 NSCLC
HT29 colon = tested on: HT29 colon
CAKI-1 renal = tested on: CAKI-1 renal
UACC-62 melanoma = tested on: UACC-62 melanoma
MDA-MB-435 melanoma = tested on: MDA-MB-435 melanoma
TK-10 renal = tested on: TK-10 renal
HCC-2998 colon = tested on: HCC-2998 colon
OVCAR-5 ovarian = tested on: OVCAR-5 ovarian
SF-295 CNS = tested on: SF-295 CNS
HCT-116 colon = tested on: HCT-116 colon
NCI-H226 lung = tested on: NCI-H226 lung
BT-549 breast = tested on: BT-549 breast
HOP-62 NSCLC = tested on: HOP-62 NSCLC
ACHN renal = tested on: ACHN renal
786-0 renal = tested on: 786-0 renal
K-562 leukemia = tested on: K-562 leukemia
COLO 205 colon = tested on: COLO 205 colon
MCF7 breast = tested on: MCF7 breast
SW-620 colon = tested on: SW-620 colon
CCRF-CEM leukemia = tested on: CCRF-CEM leukemia
IGROV1 ovarian = tested on: IGROV1 ovarian
M14 melanoma = tested on: M14 melanoma

In the case of `CCN(CCO)CCCOc1ccc2c(Nc3cc(CC(=O)Nc4cccc(F)c4)[nH]n3)ncnc2c1`, the GI50 (UO-31 renal) is reported as greater than 100 µM, the TGI (UO-31 renal) is reported as greater than 100 µM and the GI50 (PC-3 prostate) is reported as 15.1 µM. For the same compound, the TGI (PC-3 prostate) was 28.6 µM, the GI50 (MOLT-4 leukemia) was less than 0.01 µM and the GI50 (SNB-19 CNS) was 11.7 µM. The TGI (SNB-19 CNS) was 24.1 µM, the GI50 (KM12 colon) was 3.46 µM and the TGI (KM12 colon) was 14.6 µM. The GI50 (A498 renal) was 29.8 µM, the TGI (A498 renal) was greater than 100 µM and the GI50 (NCI-H322M lung) was 16.2 µM. It also gave a TGI (NCI-H322M lung) of 38.5 µM, a GI50 (NCI/ADR-RES ovarian) greater than 100 µM and a TGI (NCI/ADR-RES ovarian) greater than 100 µM. For the same compound, the GI50 (SF-268 CNS) was less than 0.01 µM, the TGI (SF-268 CNS) was 4.6 µM and the GI50 (HCT-15 colon) was greater than 100 µM. For the same compound, the TGI (HCT-15 colon) was greater than 100 µM, the GI50 (RXF 393 renal) was 0.0465 µM and the TGI (RXF 393 renal) was 20.6 µM. The GI50 (NCI-H460 NSCLC) was 0.0403 µM, the TGI (NCI-H460 NSCLC) was 16.9 µM and the GI50 (MALME-3M melanoma) was 11.3 µM. The TGI (MALME-3M melanoma) was 23.4 µM, the GI50 (HS 578T breast) was 0.0205 µM and the TGI (HS 578T breast) was 18.5 µM. For the same compound, the GI50 (SK-OV-3 ovarian) was 9.32 µM, the TGI (SK-OV-3 ovarian) was 21.4 µM and the GI50 (DU-145 prostate) was 27.7 µM. For the same compound, the TGI (DU-145 prostate) was 92 µM, the GI50 (SN12C renal) was 10.8 µM and the TGI (SN12C renal) was 23.4 µM. It also gave a GI50 (LOX IMVI melanoma) of 10.2 µM, a TGI (LOX IMVI melanoma) of 21.8 µM and a GI50 (MDA-MB-468 breast) of 0.0155 µM. For the same compound, the TGI (MDA-MB-468 breast) was 4.03 µM, the GI50 (MDA-MB-231 breast) was 12 µM and the TGI (MDA-MB-231 breast) was 24.5 µM. It also gave a GI50 (NCI-H23 lung) of 11.8 µM, a TGI (NCI-H23 lung) of 25.1 µM and a GI50 (EKVX NSCLC) of 14 µM. For the same compound, the TGI (EKVX NSCLC) was 41.7 µM, the GI50 (OVCAR-8 ovarian) was 14.7 µM and the TGI (OVCAR-8 ovarian) was 28.9 µM. The GI50 (U251 glioblastoma) was 12 µM, the TGI (U251 glioblastoma) was 24.4 µM and the GI50 (SF-539 CNS) was 2.31 µM. The TGI (SF-539 CNS) was 19.1 µM, the GI50 (SK-MEL-28 melanoma) was 15.5 µM and the TGI (SK-MEL-28 melanoma) was 29 µM. It also gave a GI50 (RPMI-8226 leukemia) of 7.83 µM, a TGI (RPMI-8226 leukemia) of 21.2 µM and a GI50 (SNB-75 CNS) of 15.1 µM. The TGI (SNB-75 CNS) was 28.4 µM, the GI50 (UACC-257 melanoma) was 14.7 µM and the TGI (UACC-257 melanoma) was 27.9 µM. For the same compound, the GI50 (OVCAR-4 ovarian) was 12.2 µM, the TGI (OVCAR-4 ovarian) was 26.5 µM and the GI50 (OVCAR-3 ovarian) was 1.63 µM. The TGI (OVCAR-3 ovarian) was 14.7 µM, the GI50 (SK-MEL-5 melanoma) was 11.4 µM and the TGI (SK-MEL-5 melanoma) was 24.8 µM. The GI50 (HOP-92 NSCLC) was 8.99 µM, the TGI (HOP-92 NSCLC) was 21.2 µM and the GI50 (HT29 colon) was 13.2 µM. It also gave a TGI (HT29 colon) of 26.2 µM, a GI50 (CAKI-1 renal) of 11.7 µM and a TGI (CAKI-1 renal) of 26.4 µM. For the same compound, the GI50 (UACC-62 melanoma) was 13.9 µM, the TGI (UACC-62 melanoma) was 26.9 µM and the GI50 (MDA-MB-435 melanoma) was 13.4 µM. The TGI (MDA-MB-435 melanoma) was 26.3 µM, the GI50 (TK-10 renal) was 32.5 µM and the TGI (TK-10 renal) was greater than 100 µM. It also gave a GI50 (HCC-2998 colon) of 12.8 µM, a TGI (HCC-2998 colon) of 25.4 µM and a GI50 (OVCAR-5 ovarian) of 18.1 µM. For the same compound, the TGI (OVCAR-5 ovarian) was 51.2 µM, the GI50 (SF-295 CNS) was 13.8 µM and the TGI (SF-295 CNS) was 29.2 µM. It also gave a GI50 (HCT-116 colon) of 8.43 µM, a TGI (HCT-116 colon) of 21.4 µM and a GI50 (NCI-H226 lung) of 14.4 µM. For the same compound, the TGI (NCI-H226 lung) was 36.4 µM, the GI50 (BT-549 breast) was 12 µM and the TGI (BT-549 breast) was 24.4 µM. For the same compound, the GI50 (HOP-62 NSCLC) was 11.7 µM, the TGI (HOP-62 NSCLC) was 24.1 µM and the GI50 (ACHN renal) was greater than 100 µM. The TGI (ACHN renal) was greater than 100 µM, the GI50 ([…]-0 renal) was 16 µM and the TGI (786-0 renal) was 31.7 µM. The GI50 (K-562 leukemia) was 10.1 µM, the TGI (K-562 leukemia) was 22.7 µM and the GI50 (COLO 205 colon) was 0.0236 µM. The TGI (COLO 205 colon) was 0.0915 µM, the GI50 (MCF7 breast) was 2.69 µM and the TGI (MCF7 breast) was 18.2 µM. The GI50 (SW-620 colon) was 13.7 µM, the TGI (SW-620 colon) was 28.9 µM and the GI50 (CCRF-CEM leukemia) was less than 0.01 µM. It also gave a GI50 (IGROV1 ovarian) of 11.6 µM, a TGI (IGROV1 ovarian) of 24.9 µM and a GI50 (M14 melanoma) of 13.3 µM. It also gave a TGI (M14 melanoma) of 26.6 µM.
